The values below come from patent US8951512B2, “Methods for treating bone disorders by characterizing and restoring mammalian bacterial microbiota” (New York University, priority 2010, dated 2015).

Assay [1] is described as follows: Sub-therapeutic antibiotic treatment (STAT) in drinking water: growth and body composition by weighing, DEXA and MRI. The format is in vivo, C57BL6/J mice. As to conditions: vs control. The protocol: Low dose penicillin (6.67 mg/L) was administered in the drinking water of C57BL6/J mice either at birth (day 0, antibiotics initially received through maternal milk) or at weaning (day 28); control mice received no antibiotics. All mice were given ad libitum access to food and water, and mice were fed either standard chow (13.5% kcal from fat) or high fat diet (45% kcal from fat). Mice were weighed daily and body composition was analyzed by dual energy x-ray absorptiometry (DEXA) and magnetic resonance imaging (MRI.)
C57B6 breeder mice (F0) were obtained at 6 weeks of age from Jackson Laboratory. One male was mated with 2 females to create the F1 generation. Males and females were separated after pregnancy was detected. On day 14 of pregnancy, STAT breeder females were exposed to penicillin so that their offspring would be exposed to antibiotics from birth; control breeders had no antibiotic exposure. From the F1 generation, penicillin-treated and control mice at or near the median weight of their group were selected at 12 weeks of age to become breeders, and to produce the F2 generation. Breeder mice and offspring were maintained on their current treatment (either control or penicillin). […]
The litters were monitored closely and the following information was collected: mating pairs, date of birth, litter number, number born, number weaned, animal number, gender, and generation number. […]
Mice were anesthetized using isofluorane. Total body mass, lean mass, fat mass, body fat percentage, and bone mineral density were measured using the Lunar PIXImus densitometer. […]
Mice were anaesthetized with isofluorane. Body temperature and breathing rate were continuously monitored throughout the scan, and body temperature was maintained by flowing warm air through the coil. […] Total body fat percentage was calculated by merging the two images to generate a fat fraction image. […] The fat volume was calculated by multiplying total volume of the VOI by the mean fat %. To determine liver adiposity, 5 consecutive slices of the liver were traced to generate a liver VOI, and the average percent fat was recorded. […]

In assay [2] the test system is butyryl coA transferase (BCoAT) gene. Put plainly: Degenerate quantitative PCR for BCoAT on fecal specimens. In kind it is in vivo, mice. The protocol:
(§1) Quantitative PCR assays to assess for taxa of interest were performed on a Rotor Gene 3000 quantitative PCR cycler using the LightCycler FastStart DNA Master PLUS SYBR Green I kit (Roche, Indianapolis Ind.) according to the manufacturer's instructions. Quantitative assays to assess total microbial census were performed for Bacteria using 16S rRNA and Fungi using ITS sequences. Quantitative assays were also performed for butyryl CoA transferase (BCoAT) and formyltetrahydrofolate synthetase (FTHFS). Values were normalized using total Bacterial 16S copies prior to analyses.
(§2) Because of the central role of short-chain fatty acid synthesis in colonic metabolism (Wong et al., J Clin Gastroenterol 40, 235-243 (2006)), the effect of STAT exposure on the prokaryotic genes butyryl coA transferase (BCoAT) and formyltetrahydrofolate synthetase (FTHFS) that play roles in butyrate and acetate synthesis was examined Degenerate quantitative PCRs for BCoAT and FTHFS (primers listed in Table 1) were performed on fecal specimens in STAT (penicillin) and control mice. […] These findings provide evidence that STAT exposure perturbs not only GI microbiome, composition but also abundance of genes critical to host energy homeostasis.

In assay [3] the test system is formyltetrahydrofolate synthetase (FTHFS) gene. Put plainly: Degenerate quantitative PCR for FTHFS on fecal specimens. The format is in vivo, mice. The conditions noted are these: vs control. Here is the method: as §1, §2
In another assay the test system is liver gene expression. Nature of the assay: Hepatic gene expression profiling by microarray. The format is in vivo, mice. The source says:
(§3) Total DNA and total RNA was extracted from the mouse liver by the Wizard® Genomic DNA purification Kit (Promega) and RNeasy Mini Kit (Qiagen), respectively, according to the manufacturers instructions. Total RNA was reverse transcribed to cDNA using the Verso™ cDNA Synthesis Kit (Thermo Scientific). To generate standards for each target gene expression analysis, the DNA or cDNA region of interest was PCR-amplified and the PCR product was cloned using the pGEM-Teasy vector system (Promega). qPCR was performed with a LightCycler 480 SYBR Green I Master (Roche) and run in a LightCycler 480 system (Roche). Target mRNA was normalized to GAPDH mRNA as an internal control in each sample.
Expression profiling of the STAT and control animal groups (n=6 each) was performed using the Affymetrix Genechip system (Affymetrix, Santa Clara, Calif.). Total RNA quality and quantity were determined using the Agilent 2100 Bioanalyzer and Nanodrop ND-1000. Total RNA (100 ng) was used to prepare cDNA following the Affymetrix 3′IVT Express Kit labeling protocol (Affymetrix). Standardized array processing procedures recommended by Affymetrix were performed, including hybridization, fluidics processing and scanning of the Affymetrix MG-430 2.0 arrays. GeneSpring GX11 software (Agilent Technologies, Santa Clara, Calif.) was used to normalize the raw data (Affymetrix CEL files) by Robust Multichip Average algorithm (RMA).

In a further assay the test system is PPARγ. Put plainly: Hepatic qPCR normalized to GAPDH. The format is in vivo, mice. The conditions noted are these: liver qPCR, vs control.
Source text: as §3
A general note: Quantitative PCR measures a nucleic acid by following its amplification.

A further assay has as its system SREBP1c. Put plainly: Hepatic qPCR normalized to GAPDH. In kind it is in vivo, mice. The conditions noted are these: liver, vs control; same direction as microarrays.
Source text: as §3

The test system of assay [4] is fatty acid translocase (FAT, CD36). Put plainly: Hepatic qPCR normalized to GAPDH. The format is in vivo, mice. The conditions noted are these: liver qPCR, vs control.
Source text: as §3

The subject of assay [5] is insulin receptor substrate 2 (IRS-2). Nature of the assay: Hepatic qPCR normalized to GAPDH. In kind it is in vivo, mice. The conditions noted are these: liver, vs control; same direction as microarrays.
Source text: as §3

Regarding penicillin, the “Weight at 21 days” value is reported as “significantly decreased” in assay [1] (F1 generation, female mice); “no difference” in assay [1] (F1 generation, sex not given); “significantly increased” in assay [1] (F2 generation, both females and males). The BCoAT gene copies in assay [2] (at 3 weeks) is 193±22 normalized copies; in assay [2] (by 7 weeks, vs control), “normalized”. For the same substance, the FTHFS gene copies result is recorded as “no significant differences” in assay [3] (at 3 weeks) and “significantly higher” in assay [3] (by 7 weeks). In the assay with liver gene expression (>45,000 genes surveyed, vs control), the “Genes significantly up- or down-regulated by t-test or PTM” value is recorded as 466 genes. Also, the “Genes significantly differed from controls by both tests” value in the assay on liver gene expression (t-test and PTM) came to 397 genes. The “Genes differentially expressed, fatty acid metabolism pathways” value in the assay on liver gene expression (vs control) is 22 genes. Further, the “Genes differentially expressed, lipid metabolic processes” value with liver gene expression (vs control) was determined as 47 genes. Further, the “PPARγ normalized gene counts” value in the assay on PPARγ is recorded as “significantly higher”. The “SREBP1c qPCR result” value in the assay with SREBP1c was “not statistically significant”. For the same substance, the “FAT normalized gene counts” value in assay [4] is given as “significantly higher”. In addition, the “IRS-2 qPCR result” value in assay [5] was “not statistically significant”.
